This note sets out measurements from ChEMBL document CHEMBL1152075, “Synthesis and SAR of diiodotyrosine-derived glycine-site N-methyl-D-aspartate receptor ligands” (Bioorg Med Chem Lett, 1996).

One test concerns the target Glutamate NMDA receptor. Description: Ability to displace [3H]L-689560 from NMDA receptor glycine site in rat brain membranes. Type of test: cell membranes.
As a reminder, the IC50 is the point on the concentration scale where inhibition reaches its midpoint. A low value points to inhibition by little substance. `N[C@H](Cc1cc(I)c(Oc2ccc(O)cc2)c(I)c1)C(=O)O` gave an IC50 of 4100 nM. Molecule `CCOc1c(I)cc(C[C@@H](N)C(=O)O)cc1I` displayed an IC50 of 1500 nM.

Consider `N[C@H](Cc1cc(I)c(O)c(I)c1)C(=O)O`, for which the half-maximal inhibitory concentration (IC50) worked out at 100000 nM. Molecule `N[C@H](Cc1cc(I)c(Oc2cc(I)c(O)c(I)c2)c(I)c1)C(=O)O` [DEXTROTHYROXINE] showed an IC50 of 330 nM. The same measure, in the same setting: under `N[C@@H](Cc1cc(I)c(OCCc2ccc(O)cc2)c(I)c1)C(=O)O` stands above 100000 nM; under `N[C@H](Cc1ccc(OCCc2ccccc2)c(I)c1)C(=O)O`, 7300 nM; under `CC(=O)N[C@H](Cc1cc(I)c(OCCc2ccc(O)cc2)c(I)c1)C(=O)O`, above 100000 nM. The same measure, in the same setting: the same measure for `N[C@H](Cc1ccc(OCCc2ccccc2)cc1)C(=O)O`: 100000 nM. Still for that read-out and setting: the same measure for `N[C@H](Cc1cc(I)c(OCCc2ccncc2)c(I)c1)C(=O)O`: 460 nM; for `N[C@H](Cc1cc(I)c(OCc2ccccc2)c(I)c1)C(=O)O`: 790 nM; for `NC(Cc1cc(I)c(OCCc2ccc(O)cc2)c(I)c1)C(=O)O` (configuration not stated): 900 nM.

Take `N[C@H](Cc1cc(I)c(OCCc2ccccc2)c(I)c1)C(=O)O`: the concentration for half-maximal inhibition (IC50) turned out to be 510 nM. On to `COC(=O)[C@H](N)Cc1cc(I)c(OCCc2ccc(O)cc2)c(I)c1`, for which the IC50 was 100000 nM. Still for that read-out and setting: the same measure for `N[C@H](Cc1cc(I)c(OCCc2cccc(O)c2)c(I)c1)C(=O)O`: 350 nM.

The species entered for another test is Rattus norvegicus. Description: In vitro antagonist potency was determined by blockade of NMDA- induced depolarizations on rat cortical slices. The class given is functional.
One may read the Kb as the affinity of an antagonist, worked out from how it opposes an agonist. Read a high Kb as a less potent antagonist. `N[C@H](Cc1cc(I)c(OCCc2ccc(O)cc2)c(I)c1)C(=O)O` returned a Kb of 2200 nM.

In turn, `N[C@H](Cc1cc(I)c(OCCc2ccncc2)c(I)c1)C(=O)O` gave a Kb of 670 nM.

Molecule `N[C@H](Cc1cc(I)c(OCCc2cccc(O)c2)c(I)c1)C(=O)O` displayed a Kb of 2500 nM. This Kb is about 3.7-fold higher than that of the molecule before.
